One assay concerns the target T1, Adenosine receptor A1 (Rattus norvegicus, UniProt P25099).
T1 sequence (P25099 whole entry): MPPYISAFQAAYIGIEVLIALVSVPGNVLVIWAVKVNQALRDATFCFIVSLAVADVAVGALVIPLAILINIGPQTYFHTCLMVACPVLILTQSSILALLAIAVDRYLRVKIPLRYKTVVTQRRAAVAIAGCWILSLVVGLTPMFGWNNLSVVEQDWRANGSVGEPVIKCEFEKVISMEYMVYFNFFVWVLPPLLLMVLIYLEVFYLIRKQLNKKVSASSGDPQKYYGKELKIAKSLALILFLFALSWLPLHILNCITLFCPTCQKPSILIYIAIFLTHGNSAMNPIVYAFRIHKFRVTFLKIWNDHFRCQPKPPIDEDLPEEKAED

Assay [1] concerns the target T2, Adenosine receptor A2a (Rattus norvegicus, UniProt P30543). Briefly: Displacement of [3H]-CGS-21,680 or [3H]ZM-241385 binding in adenosine A2A receptor of rat striatal membrane was determined.
The target of another assay is T3, Adenosine receptor A3 (Homo sapiens, UniProt P0DMS8).
T3 sequence (P0DMS8 whole entry): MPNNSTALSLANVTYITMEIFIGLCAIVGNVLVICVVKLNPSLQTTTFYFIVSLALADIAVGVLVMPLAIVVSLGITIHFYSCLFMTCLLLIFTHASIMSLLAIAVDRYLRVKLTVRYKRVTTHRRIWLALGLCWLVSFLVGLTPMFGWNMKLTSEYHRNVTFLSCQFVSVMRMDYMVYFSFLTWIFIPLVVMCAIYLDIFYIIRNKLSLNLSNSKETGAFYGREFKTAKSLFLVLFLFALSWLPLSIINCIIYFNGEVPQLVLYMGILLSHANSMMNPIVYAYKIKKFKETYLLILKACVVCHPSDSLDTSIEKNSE
Nature of the assay: Displacement of [125I]AB-MECA from human adenosine A3 receptor expressed in HEK 293 cells. It is filed as cell-based, HEK293. (In a radioligand displacement assay an active substance lowers the binding of a labelled ligand.)

Assay [2] has as its target Adenosine receptor A2a (Rattus norvegicus) (UniProt P30543). Briefly: Displacement of [3H]CGS-21680 or [3H]ZM-241,385 binding in adenosine A2A receptor of rat striatal membrane at 10 uM.
Assay [3] has the same target. Briefly: Percent displacement of [3H]-CGS- 21680 binding in adenosine A2A receptor of rat striatal membrane at a concentration of 10 uM.
Assay [4] has as its target T4, Adenosine receptor A1 (Rattus norvegicus) (UniProt P25099).
T4 sequence (whole entry): T1 sequence (P25099 whole entry)
The note with it: 10 uM.
Description: Percent displacement of [3H]DPCPX binding in adenosine A1 receptor of rat brain cortical membrane at a concentration of 10 uM

Assay [5] has as its target T2, Adenosine receptor A2a. Nature of the assay: Displacement of [3H]-CGS- 21680 binding in adenosine A2A receptor of rat striatal membrane.
The target in assay [6] is T4, Adenosine receptor A1 (Rattus norvegicus). Nature of the assay: Displacement of [3H]DPCPX binding in adenosine A1 receptor of rat brain cortical membrane at a concentration of 10 uM.
Assay [7] addresses T5, Adenosine receptor A3 (Homo sapiens) (UniProt P0DMS8).
T5 sequence (whole entry): T3 sequence (P0DMS8 whole entry)
Nature of the assay: Displacement of [125I]AB-MECA from adenosine A3 receptor expressed in HEK 293 cells at 10 uM. The note with it: HEK293.

In assay [8] the target is Adenosine receptor A2a (Rattus norvegicus) (UniProt P30543). Nature of the assay: Percentage displacement of [3H]-CGS- 21680 binding in adenosine A2A receptor of rat striatal membrane at a concentration of 10 uM.
Sequence of Adenosine receptor A2a (Rattus norvegicus) (P30543 whole entry): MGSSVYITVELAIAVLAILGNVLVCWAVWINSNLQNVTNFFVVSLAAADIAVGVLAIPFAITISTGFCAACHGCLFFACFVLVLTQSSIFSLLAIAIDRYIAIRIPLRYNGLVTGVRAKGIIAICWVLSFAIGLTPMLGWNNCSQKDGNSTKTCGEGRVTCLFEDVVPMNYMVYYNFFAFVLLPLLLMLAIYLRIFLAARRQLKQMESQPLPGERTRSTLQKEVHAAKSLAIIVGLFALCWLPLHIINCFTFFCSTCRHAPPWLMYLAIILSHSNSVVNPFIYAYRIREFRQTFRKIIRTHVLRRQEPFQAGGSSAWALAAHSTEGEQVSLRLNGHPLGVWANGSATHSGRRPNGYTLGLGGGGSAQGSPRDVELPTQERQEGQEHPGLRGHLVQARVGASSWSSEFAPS
Assay [9] concerns the target T4, Adenosine receptor A1 (Rattus norvegicus). Briefly: Percentage displacement of [3H]DPCPX binding in adenosine A1 receptor of rat brain cortical membrane at a concentration of 10 uM.
Assay [10] has as its target Adenosine receptor A2a (Rattus norvegicus) (UniProt P30543). Briefly: Displacement of [3H]ZM-241385 binding in adenosine A2A receptor of rat striatal membrane at a concentration of 10 uM.

This is an account of results in ChEMBL document CHEMBL1134360, “Thiazole and thiadiazole analogues as a novel class of adenosine receptor antagonists” (J Med Chem, 2001).

SMILES strings stand for the structures.

T2 sequence (P30543 whole entry): as above

As to `COC1CCC(C(=O)Nc2nc(-c3ccccc3)ns2)CC1` (stereo in doubt; 8l), the Ki (usually the equilibrium dissociation constant of an inhibitor or competing ligand from its target) on Adenosine receptor A1 was 110 nM; on Adenosine receptor A2a [1] it was 2000 nM; at Adenosine receptor A3, 5300 nM.

Consider `O=C(Nc1nc(-c2ccccn2)cs1)c1ccc(I)cc1`, for which the Displacement in assay [2] was 50%.

`O=C(O)COc1ccc(C(=O)Nc2nc(-c3ccccc3)ns2)cc1`: the results for the Ki on Adenosine receptor A1, at Adenosine receptor A2a [1] and on Adenosine receptor A3 were 100 nM, 15000 nM and 1200 nM, respectively.

Take `COc1ccc(C(=O)Nc2nc(-c3ccccn3)cc3ccccc23)cc1`: the inhibition constant (Ki) on Adenosine receptor A1 and on Adenosine receptor A2a [5] was more than 10000 nM in each case. Further, the Displacement in assay [3] amounted to 19%; in assay [4], 37%.

Regarding `COc1ccc(C(=O)Nc2nc(-c3ccccc3)ns2)cc1`, the inhibition constant (Ki) on Adenosine receptor A1 was determined as 32 nM; on Adenosine receptor A2a [1], 2300 nM; at Adenosine receptor A3 it was 82 nM.

As to `COC1CCC(C(=O)Nc2nc(-c3ccccc3)ns2)CC1` (stereo in doubt; 8k), the results for the Ki on Adenosine receptor A1, on Adenosine receptor A2a [1] and at Adenosine receptor A3 were 32 nM, 1900 nM and 1700 nM, respectively.

For the compound `O=C(Nc1nc(-c2ccccc2)ns1)c1ccc(O)cc1`, the Ki at Adenosine receptor A1 was 7.3 nM; at Adenosine receptor A2a [1], 570 nM; at Adenosine receptor A3, 130 nM.

Turning to `O=C(Nc1nc(-c2ccccc2)ns1)C1CCC(O)CC1` (stereo in doubt; 8n) [listing 1 of 2 here], the Ki at Adenosine receptor A1 was found to be 42 nM; on Adenosine receptor A3, 2700 nM.

Consider `COc1ccc(C(=O)Nc2cccc(-c3ccccc3)c2)cc1`, for which the Displacement is 30% in assay [6] and 41% in [2]. Moreover, at Adenosine receptor A3, the Ki worked out at 10000 nM.

With `COc1ccccc1NC(=O)Nc1nc(-c2ccccc2)ns1`, the values for the Displacement in [7], in assay [6] and in [2] were 20%, 27% and 38%, respectively.

As for `O=C(Nc1ccccc1)Nc1nc(-c2ccccc2)ns1`, the Ki at Adenosine receptor A1 amounted to 1000 nM; at Adenosine receptor A3 it was 4000 nM. In [2], this compound returned a Displacement of 48%.

Consider `COc1ccc(C(=O)Nc2nc(-c3ccccc3)ns2)cc1C`, for which the Displacement in assay [6] is 48%; in assay [2] it was 8%. At Adenosine receptor A3, this compound displayed a Ki of 580 nM.

Consider `O=C(Nc1nc(-c2ccccc2)ns1)C1CCC(O)CC1` (stereo in doubt; 8n) [listing 2 of 2 here], for which the Displacement in assay [2] was determined as 41%.

In [2], `COc1ccc(C(=O)Nc2cc(-c3ccccc3)ncn2)cc1` displayed a Displacement of 31%. Besides, on Adenosine receptor A3, the Ki was determined as 800 nM.

In the case of `O=C(Nc1nc(-c2ccccn2)cs1)C1CCCC1`, the inhibition constant (Ki) came to 920 nM at Adenosine receptor A1, 1300 nM at Adenosine receptor A2a [1] and 2100 nM at Adenosine receptor A3.

As to `COc1ccc(C(=O)Nc2cccc(-c3ccccc3)n2)cc1`, the Displacement in assay [6] is 46%; in assay [2] it was 16%. Besides, on Adenosine receptor A3, the inhibitory constant (Ki) came to 8700 nM.

With `COc1ccc(C(=O)Nc2nc(-c3ccccc3)cs2)cc1`, the values for the Ki at Adenosine receptor A1, on Adenosine receptor A2a [1] and on Adenosine receptor A3 were 76 nM, 1900 nM and 670 nM, respectively.

Turning to `O=C(Nc1nc(-c2ccccn2)cc2ccccc12)c1ccccc1`, the Displacement in [8] was 0%.

Consider `O=C(Nc1nc(-c2ccccn2)cs1)c1ccc(Cl)c(Cl)c1`, for which the inhibitory constant (Ki) on Adenosine receptor A1 was 1600 nM; on Adenosine receptor A3, 2500 nM. Besides, in assay [2], the Displacement is 20%.

Consider `COc1ccc(C(=O)Nc2nc(-c3ccccn3)cs2)cc1`, for which the inhibition constant (Ki) is 3200 nM at Adenosine receptor A1 and 1800 nM on Adenosine receptor A3. Also, in assay [2], the Displacement was 40%.

For `O=C(Nc1nc(-c2ccccc2)cc2ccccc12)c1ccccc1`, the Ki on Adenosine receptor A1 and at Adenosine receptor A3 was 1200 nM throughout. The compound also gave a Displacement in assay [8] of 0%.

The compound `Nc1nc2ccc(Cl)cc2c2nc(-c3ccco3)nn12` [CGS-15943] gave an inhibition constant Ki on Adenosine receptor A3 of 140 nM.

With `Cc1ccc(C(=O)Nc2nc(-c3ccccc3)ns2)cc1`, the inhibitory constant (Ki) is 30 nM on Adenosine receptor A1 and 140 nM on Adenosine receptor A3. For the same compound, in assay [2], the Displacement came to 38.2%.

Take `COc1ccc(C(=O)Nc2nc(-c3ccccc3)cc3ccccc23)cc1`: the Ki on Adenosine receptor A1 stood at 3000 nM; on Adenosine receptor A3 it was 79 nM. The Displacement in assay [8] is 35%.

Turning to `O=C(Nc1nc(-c2ccccc2)nc2ccccc12)c1ccccc1`, the figures for the Displacement in assay [9] and in assay [8] were 34% and 17%, respectively. Moreover, the inhibitory constant (Ki) at Adenosine receptor A3 was found to be 240 nM.

As for `O=C(Nc1nc(-c2ccccc2)ns1)c1ccc(Cl)cc1`, the Ki at Adenosine receptor A1 was 41 nM; at Adenosine receptor A3, 520 nM. The same compound showed a Displacement in assay [2] of 36%.

Turning to `O=C(Nc1nc(-c2ccccc2)ns1)C1CCCCC1`, the inhibition constant (Ki) at Adenosine receptor A1 came to 1400 nM; on Adenosine receptor A3 it was 16000 nM. Moreover, the Displacement in [2] is 16%.

For `O=C(Nc1nc(-c2ccccc2)ns1)c1ccccc1`, the Ki at Adenosine receptor A1 is 31 nM; at Adenosine receptor A2a [1], 4400 nM; on Adenosine receptor A3, 410 nM.

With `O=C(Nc1nc(-c2ccccn2)cs1)c1ccc([N+](=O)[O-])cc1`, the Displacement in assay [2] worked out at 29%.

On to `COc1ccc(NC(=O)Nc2nc(-c3ccccn3)cs2)cc1`, for which the Displacement in assay [6] is 4%; in assay [2], 11%. This compound showed a Ki on Adenosine receptor A3 of 147000 nM.

`COc1ccc(NC(=O)Nc2nc(-c3ccccc3)ns2)cc1`: the Displacement in assay [6] came to 44%; in [2] it was 16%. This compound also displayed an inhibitory constant (Ki) at Adenosine receptor A3 of 3300 nM.

As for `O=C(Nc1nc(-c2ccccc2)ns1)c1ccc(I)cc1`, the Displacement in assay [6] stood at 49%; in [2], 19%. At Adenosine receptor A3, this compound had an inhibitory constant (Ki) of 1100 nM.

As to `O=C(Nc1nc(-c2ccccc2)ns1)C1CCC(O)CC1` (stereo in doubt) [listing 1 of 2 here], the Displacement in assay [2] turned out to be 37%.

For `O=C(Nc1nc(-c2ccccc2)ns1)c1ccc([N+](=O)[O-])cc1`, the Displacement in assay [7] came out at 28%; in [6] it was 34%; in assay [2], 5%.

As for `COc1ccc(C(=O)Nc2cc(-c3ccccc3)[nH]n2)cc1`, the Displacement in assay [7] is 35%; in assay [6], 20%; in assay [2] it was 16%.

On to `COc1ccc(C(=O)Nc2nc(-c3ccccc3)nc3ccccc23)cc1`, for which the Ki amounted to 1800 nM on Adenosine receptor A1 and 27 nM at Adenosine receptor A3. The compound further had a Displacement in assay [8] of 44%.

Consider `O=C(Nc1nc(-c2ccccn2)cs1)c1ccccc1`, for which the Ki was determined as 1700 nM on Adenosine receptor A1, 8700 nM on Adenosine receptor A2a [1] and 3400 nM at Adenosine receptor A3.

In the case of `O=C(Nc1nc(-c2ccccn2)cs1)c1cccc(Cl)c1`, the inhibitory constant (Ki) at Adenosine receptor A1 stood at 1700 nM; at Adenosine receptor A2a [1], 1300 nM; on Adenosine receptor A3, 4600 nM.

On to `COc1ccccc1NC(=O)Nc1nc(-c2cccnc2)nc2ccccc12`, for which the results for the inhibitory constant (Ki) at Adenosine receptor A1, on Adenosine receptor A2a [5] and on Adenosine receptor A3 were more than 10000 nM, more than 10000 nM and 4 nM, respectively.

As to `Cc1ccc(C(=O)Nc2nc(-c3ccccn3)cs2)cc1`, the figures for the inhibition constant (Ki) at Adenosine receptor A1 and at Adenosine receptor A3 were 1600 nM and 3200 nM, respectively. Further, the Displacement in assay [2] came out at 44%.

`O=C(Nc1nc(-c2ccccn2)cs1)c1ccc(Cl)cc1` registered a Displacement in assay [2] of 30%.

With `O=C(Nc1ccccc1)Nc1nc(-c2ccccc2)cs1`, the Displacement in assay [10] worked out at 19%; in [9], 37%. In addition, the affinity at Adenosine receptor A3, expressed as Ki, was 9900 nM.

`CC(C)Oc1ccc(C(=O)Nc2nc(-c3ccccn3)cs2)cc1`: the values for the Ki at Adenosine receptor A1 and on Adenosine receptor A3 were 5800 nM and 3700 nM, respectively. Further, in assay [2], the Displacement turned out to be 44%.

As for `COC(=O)C1=C2C=CN(C)C=C2c2nc(-c3ccccc3)nn2C1`, the affinity at Adenosine receptor A3 corresponds to a Ki of 170 nM.

In the case of `O=C(Nc1nc(-c2ccccn2)nc2ccccc12)c1ccccc1`, the results for the Displacement in assay [9] and in assay [8] were 16% and 9%, respectively.

Take `O=C(Nc1nc(-c2ccccc2)ns1)C1CCC(O)CC1` (stereo in doubt) [listing 2 of 2 here]: the Ki at Adenosine receptor A1 amounted to 20 nM; on Adenosine receptor A3 it was 1900 nM.

Consider `O=C(Nc1ccccc1)Nc1nc(-c2ccccn2)cs1`, for which the inhibitory constant (Ki) was 930 nM at Adenosine receptor A1, 920 nM at Adenosine receptor A2a [1] and 5000 nM on Adenosine receptor A3.

With `COc1ccc(C(=O)NC2=NN(c3ccccc3)CC2)cc1`, the Displacement in assay [7] came out at 41%; in assay [6], 26%; in assay [2], 19%.
